Laboratory results as given in USRE50050E1, “Pyrimidinedione compounds” (MyoKardia, Inc., priority 2013, dated 2024).
Read-outs that look alike come from different tables or passages of the source.

Target: T1, bovine cardiac myosin (Bos taurus, UniProt Q9BE39)
T1 construct: The source of cardiac myosin was from bovine heart in the form of skinned myofibrils; from tissue; host or cells: bovine heart, skinned myofibrils
Assay: Myosin inhibition assay (PK/LDH-coupled ATPase, bovine cardiac myofibrils)
Assay type: biochemical

[1] = bovine cardiac myofibrils, calcium giving 75% activation (pCa75), read-out: Biochemical Activity (pCa75)
[2] = pCa75, assay conducted using 0.5 μM myosin, IC50 values below 1.0 μM are approximate, read-out: IC50 (pCa75)
[3] = bovine cardiac myofibrils, calcium giving 50% activation (pCa50), read-out: Biochemical Activity (pCa50)

T1 sequence (Q9BE39 whole entry): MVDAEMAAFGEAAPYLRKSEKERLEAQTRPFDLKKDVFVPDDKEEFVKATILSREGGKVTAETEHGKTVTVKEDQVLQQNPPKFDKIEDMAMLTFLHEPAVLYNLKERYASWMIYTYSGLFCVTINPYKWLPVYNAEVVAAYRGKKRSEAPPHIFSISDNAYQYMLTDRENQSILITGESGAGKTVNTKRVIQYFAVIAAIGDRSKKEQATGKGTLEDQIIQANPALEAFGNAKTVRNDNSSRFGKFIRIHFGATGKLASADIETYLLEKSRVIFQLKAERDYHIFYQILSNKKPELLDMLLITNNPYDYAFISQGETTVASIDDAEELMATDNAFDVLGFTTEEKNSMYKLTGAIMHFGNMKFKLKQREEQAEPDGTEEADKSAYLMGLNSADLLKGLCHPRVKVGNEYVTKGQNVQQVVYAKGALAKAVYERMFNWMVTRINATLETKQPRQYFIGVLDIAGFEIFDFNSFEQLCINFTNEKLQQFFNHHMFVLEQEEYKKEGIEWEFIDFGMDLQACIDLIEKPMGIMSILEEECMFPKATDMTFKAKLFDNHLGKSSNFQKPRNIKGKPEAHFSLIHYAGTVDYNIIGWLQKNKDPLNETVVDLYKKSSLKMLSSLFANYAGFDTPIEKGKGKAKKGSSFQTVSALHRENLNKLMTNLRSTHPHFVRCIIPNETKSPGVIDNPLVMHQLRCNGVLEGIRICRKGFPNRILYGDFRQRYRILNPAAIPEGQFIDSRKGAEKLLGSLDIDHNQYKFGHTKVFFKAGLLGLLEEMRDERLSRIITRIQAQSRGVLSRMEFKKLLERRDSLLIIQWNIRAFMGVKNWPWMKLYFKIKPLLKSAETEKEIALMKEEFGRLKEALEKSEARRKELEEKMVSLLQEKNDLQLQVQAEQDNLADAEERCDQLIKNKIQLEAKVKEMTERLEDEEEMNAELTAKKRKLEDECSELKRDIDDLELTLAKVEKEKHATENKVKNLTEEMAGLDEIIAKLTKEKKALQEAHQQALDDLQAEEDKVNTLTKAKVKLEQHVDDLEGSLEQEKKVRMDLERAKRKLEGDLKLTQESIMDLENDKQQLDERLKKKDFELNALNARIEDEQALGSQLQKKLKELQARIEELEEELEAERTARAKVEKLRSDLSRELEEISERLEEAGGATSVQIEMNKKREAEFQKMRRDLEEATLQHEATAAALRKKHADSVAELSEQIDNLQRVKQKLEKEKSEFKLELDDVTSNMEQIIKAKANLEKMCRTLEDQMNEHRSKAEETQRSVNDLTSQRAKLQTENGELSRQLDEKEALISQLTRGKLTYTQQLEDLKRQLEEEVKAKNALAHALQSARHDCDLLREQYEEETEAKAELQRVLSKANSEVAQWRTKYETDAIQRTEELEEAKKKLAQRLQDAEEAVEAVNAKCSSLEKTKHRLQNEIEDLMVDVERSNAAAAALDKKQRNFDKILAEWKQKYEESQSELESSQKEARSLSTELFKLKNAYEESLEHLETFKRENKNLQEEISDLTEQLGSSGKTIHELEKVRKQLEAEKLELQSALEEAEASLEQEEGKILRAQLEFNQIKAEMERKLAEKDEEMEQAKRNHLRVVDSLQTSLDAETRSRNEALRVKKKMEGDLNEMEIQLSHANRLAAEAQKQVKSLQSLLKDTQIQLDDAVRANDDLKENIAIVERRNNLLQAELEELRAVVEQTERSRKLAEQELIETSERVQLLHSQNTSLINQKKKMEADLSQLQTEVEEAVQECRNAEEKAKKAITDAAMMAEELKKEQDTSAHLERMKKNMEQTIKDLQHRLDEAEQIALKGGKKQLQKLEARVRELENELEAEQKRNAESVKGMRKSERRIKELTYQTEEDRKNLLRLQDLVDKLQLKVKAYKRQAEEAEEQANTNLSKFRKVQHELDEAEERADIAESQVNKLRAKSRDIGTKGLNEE
T1 sequence (P85100 whole entry partner): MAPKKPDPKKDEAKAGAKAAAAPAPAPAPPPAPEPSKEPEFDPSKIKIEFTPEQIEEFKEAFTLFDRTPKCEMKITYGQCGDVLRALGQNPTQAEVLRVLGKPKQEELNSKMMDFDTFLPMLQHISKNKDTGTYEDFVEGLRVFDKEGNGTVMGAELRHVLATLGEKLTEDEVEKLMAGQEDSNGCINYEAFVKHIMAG
T1 sequence (Q3SZE5 whole entry partner): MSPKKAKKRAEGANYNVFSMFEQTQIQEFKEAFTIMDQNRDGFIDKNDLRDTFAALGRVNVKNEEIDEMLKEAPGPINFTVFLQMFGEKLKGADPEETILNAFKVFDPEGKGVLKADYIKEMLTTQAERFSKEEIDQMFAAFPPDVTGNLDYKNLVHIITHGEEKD

IC50 [1] | SMILES | also measured
< 1000 nM | CC(C)n1c(=O)[nH]c(N[C@@H](C)c2ccccc2)c(Br)c1=O [Compound 3, (S)-5-Bromo-3-isopropyl-6-((1-phenylethyl)amino)pyrimidine-2,4(1H,3H)-dione] | –
< 1000 nM | CC(C)n1c(=O)cc(N[C@@H](C)c2cc(F)cc(F)c2)[nH]c1=O [Compound 5, (S)-6-((1-(3,5-Difluorophenyl)ethyl)amino)-3-isopropylpyrimidine-2,4(1H,3H)-dione] | –
< 1000 nM | CC(C)n1c(=O)cc(N[C@H](c2ccccc2)C2CC2)[nH]c1=O [Compound 6, (S)-6-((Cyclopropyl(phenyl)methyl)amino)-3-isopropylpyrimidine-2,4(1H,3H)-dione] | –
< 1000 nM | CC(C)n1c(=O)cc(N[C@H](c2ccccc2)C2CCC2)[nH]c1=O [Compound 8, (S)-6-((Cyclobutyl(phenyl)methyl)amino)-3-isopropylpyrimidine-2,4(1H,3H)-dione] | –
< 1000 nM | C[C@H](Nc1cc(=O)n(C2CCOCC2)c(=O)[nH]1)c1ccccc1 [Compound 9, (S)-6-((1-phenylethyl)amino)-3-(tetrahydro-2H-pyran-4-yl)pyrimidine-2,4(1H,3H)-dione] | –
< 1000 nM | COc1cccc([C@H](C)Nc2cc(=O)n(C3CCOCC3)c(=O)[nH]2)c1 [Compound 10, (S)-6-((1-(3-methoxyphenyl)ethyl)amino)-3-(tetrahydro-2H-pyran-4-yl)pyrimidine-2,4(1H,3H)-dione] | –
1000 to 15000 nM | C[C@H](Nc1cc(=O)n(C2CCOC2)c(=O)[nH]1)c1ccccc1 (stereo partly drawn) [Compound 11, 6-(((S)-1-phenylethyl)amino)-3-(tetrahydrofuran-3-yl)pyrimidine-2,4(1H,3H)-dione] | –
< 1000 nM | C[C@H](Nc1cc(=O)n(-c2cccnc2)c(=O)[nH]1)c1ccccc1 [Compound 15, (S)-6-(1-phenylethylamino)-3-(pyridin-3-yl)pyrimidine-2,4(1H,3H)-dione] | –
< 1000 nM | CC(C)n1c(=O)cc(N[C@@H](C)c2cccc(-n3cccn3)c2)[nH]c1=O [Compound 17, (S)-6-((1-(3-(1H-pyrazol-1-yl)phenyl)ethyl)amino)-3-isopropylpyrimidine-2,4(1H,3H)-dione] | –
< 1000 nM | COc1cccc([C@H](C)Nc2cc(=O)n(C(C)C)c(=O)[nH]2)c1 [Compound 21] | IC50 [2]: 390 nM
1000 to 15000 nM | COc1ccccc1[C@H](C)Nc1cc(=O)n(C(C)C)c(=O)[nH]1 [Compound 22] | –
> 15000 nM | Cc1c(N[C@@H](C)c2ccccc2)[nH]c(=O)n(C(C)C)c1=O [Compound 25] | –
< 1000 nM | CC(C)n1c(=O)cc(N[C@@H](C)c2ccccc2F)[nH]c1=O [Compound 26] | –
< 1000 nM | COC[C@H](Nc1cc(=O)n(C(C)C)c(=O)[nH]1)c1ccccc1 [Compound 29] | –
< 1000 nM | CC(C)n1c(=O)cc(N[C@@H](C)c2ccc(F)cc2)[nH]c1=O [Compound 30] | –
< 1000 nM | CC[C@H](Nc1[nH]c(=O)n(C(C)C)c(=O)c1F)c1ccccc1 [Compound 31] | –
< 1000 nM | CC(C)n1c(=O)[nH]c(N[C@@H](C)c2cccc(F)c2)c(F)c1=O [Compound 32] | –
< 1000 nM | CC(C)n1c(=O)cc(N[C@@H](C)c2cc(F)ccc2F)[nH]c1=O [Compound 34] | –
< 1000 nM | CC(C)n1c(=O)cc(N[C@@H](C)c2cccc(Br)c2)[nH]c1=O [Compound 35] | IC50 [3]: < 1000 nM
< 1000 nM | C[C@H](Nc1cc(=O)n(-c2ccn(C)n2)c(=O)[nH]1)c1ccccc1 [Compound 39] | –
< 1000 nM | C[C@H](Nc1cc(=O)n(-c2ccno2)c(=O)[nH]1)c1ccccc1 [Compound 40] | –
< 1000 nM | Cc1nccn1-c1cccc([C@H](C)Nc2cc(=O)n(C(C)C)c(=O)[nH]2)c1 [Compound 42] | –
< 1000 nM | C[C@H](Nc1cc(=O)n(C2CCCCC2)c(=O)[nH]1)c1ccccc1 [Compound 44] | –
1000 to 15000 nM | C[C@H](Nc1cc(=O)n(C)c(=O)[nH]1)c1ccccc1 [Compound 47] | –
< 1000 nM | Cc1cccc([C@H](C)Nc2cc(=O)n(C(C)C)c(=O)[nH]2)c1 [Compound 50, (S)-3-isopropyl-6-((1-(m-tolyl)ethyl)amino)pyrimidine-2,4(1H,3H)-dione] | –
< 1000 nM | CC(C)n1c(=O)cc(N[C@@H](C)c2cccc(C(F)(F)F)c2)[nH]c1=O [Compound 55, (S)-3-isopropyl-6-((1-(3-(trifluoromethyl)phenyl)ethyl)amino) pyrimidine-2,4(1H,3H)-dione] | –
< 1000 nM | C[C@H](Nc1cc(=O)n(-c2c(F)cccc2F)c(=O)[nH]1)c1ccccc1 [Compound 58, (S)-3-(2,6-difluorophenyl)-6-((1-phenylethyl)amino)pyrimidine-2,4(1H,3H)-dione] | –
1000 to 15000 nM | CC(C)n1c(=O)cc(N[C@@H](C)Cc2ccncc2)[nH]c1=O [Compound 61, (S)-3-isopropyl-6-((1-(pyridin-4-yl)propan-2-yl)amino)pyrimidine-2,4(1H,3H)-dione] | –

Continued, compound first:

SMILES | IC50 [1] | also measured
CC(C)n1c(=O)[nH]c(N[C@@H](C)c2cccc(Cl)c2)c(F)c1=O [Compound 4, (S)-6-((1-(3-Chlorophenyl)ethyl)amino)-5-fluoro-3-isopropylpyrimidine-2,4(1H,3H)-dione] | < 1000 nM | –
COc1cccc([C@@H](Nc2cc(=O)n(C(C)C)c(=O)[nH]2)C2CC2)c1 [Compound 7, (S)-6-((cyclopropyl(3-methoxyphenyl)methyl)amino)-3-isopropylpyrimidine-2,4(1H,3H)-dione] | < 1000 nM | –
COC(=O)N1CCC(n2c(=O)cc(N[C@@H](C)c3ccccc3)[nH]c2=O)CC1 [Compound 13, (S)-methyl 4-(2,6-dioxo-4-(1-phenylethylamino)-2,3-dihydropyrimidin-1(6H)-yl)piperidine-1-carboxylate] | < 1000 nM | –
CC[C@@H](C)n1c(=O)cc(N[C@@H](C)c2cccc(OC)c2)[nH]c1=O [Compound 14, 3-(R)-sec-butyl-6-((S)-1-(3-methoxyphenyl)ethylamino)pyrimidine-2,4(1H,3H)-dione] | < 1000 nM | –
C[C@H](Nc1cc(=O)n(-c2ccon2)c(=O)[nH]1)c1ccccc1 [Compound 16, (S)-3-(Isoxazol-3-yl)-6-(1-phenylethylamino)pyrimidine-2,4(1H,3H)-dione] | 1000 to 15000 nM | –
COc1cccc([C@@H](C)Nc2cc(=O)n(C(C)C)c(=O)[nH]2)c1 [Compound 20R] | – | IC50 [2]: 19600 nM
CC[C@H](Nc1cc(=O)n(C(C)C)c(=O)[nH]1)c1ccccc1 [Compound 24] | < 1000 nM | –
CC(C)n1c(=O)cc(N[C@@H](C)c2cccc(Cl)c2)[nH]c1=O [Compound 28] | < 1000 nM | –
COc1cccc([C@H](C)Nc2[nH]c(=O)n(C(C)C)c(=O)c2F)c1 [Compound 33] | < 1000 nM | –
CC[C@H](Nc1cc(=O)n(CC)c(=O)[nH]1)c1ccccc1 [Compound 36] | – | IC50 [3]: 1000 to 15000 nM
C[C@H](Nc1cc(=O)n(C2CC2)c(=O)[nH]1)c1ccccc1 [Compound 37] | 1000 to 15000 nM | –
C[C@H](Nc1cc(=O)n(-c2ccccn2)c(=O)[nH]1)c1ccccc1 [Compound 38] | < 1000 nM | IC50 [3]: < 1000 nM
CC(C)n1c(=O)cc(N[C@@H](C)c2cccc(-n3cncn3)c2)[nH]c1=O [Compound 41] | < 1000 nM | –
CC(C)n1c(=O)cc(N[C@@H](C)c2cccc(N3CCOC3=O)c2)[nH]c1=O [Compound 43] | < 1000 nM | –
CCn1c(=O)cc(N[C@@H](C)c2ccccc2)[nH]c1=O [Compound 46] | 1000 to 15000 nM | –
CC(C)n1c(=O)cc(N[C@@H](C)Cc2ccc(F)cc2)[nH]c1=O [Compound 51, (S)-6-((1-(4-fluorophenyl)propan-2-yl)amino)-3-isopropylpyrimidine-2,4(1H,3H)-dione] | – | IC50: 1000 to 15000 nM
CC(C)n1c(=O)cc(N[C@H](c2ccccc2)C(F)(F)F)[nH]c1=O [Compound 52, (R)-3-isopropyl-6-((2,2,2-trifluoro-1-phenylethyl)amino)pyrimidine-2,4(1H,3H)-dione] | < 1000 nM | –
C[C@H](Nc1cc(=O)n([C@H](C)COCc2ccccc2)c(=O)[nH]1)c1ccccc1 [Compound 53, 3-((R)-1-(benzyloxy)propan-2-yl)-6-(((S)-1-phenylethyl)amino)pyrimidine-2,4(1H,3H)-dione] | 1000 to 15000 nM | –
C[C@H](Nc1cc(=O)n([C@H](C)CO)c(=O)[nH]1)c1ccccc1 [Compound 54, 3-((R)-1-hydroxypropan-2-yl)-6-(((S)-1-phenylethyl)amino)pyrimidine-2,4(1H,3H)-dione] | 1000 to 15000 nM | IC50 [3]: 1000 to 15000 nM
CC(C)n1c(=O)cc(N[C@@H](C)c2ccccc2C#N)[nH]c1=O [Compound 56, (S)-3-isopropyl-6-((1-(2-cyanophenyl)ethyl)amino)pyrimidine-2,4(1H,3H)-dione] | > 15000 nM | –
C[C@H](Nc1cc(=O)n(Cc2ccccc2)c(=O)[nH]1)c1ccccc1 [Compound 57, (S)-3-benzyl-6-((1-phenylethyl)amino)pyrimidine-2,4(1H,3H)-dione] | – | IC50 [3]: 1000 to 15000 nM
CC(C)n1c(=O)cc(N[C@@H](C)c2c(F)cccc2F)[nH]c1=O [Compound 59, (S)-6-((1-(2,6-difluorophenyl)ethyl)amino)-3-isopropylpyrimidine-2,4(1H,3H)-dione] | < 1000 nM | IC50 [2]: 450 nM
CC(C)n1c(=O)cc(N[C@H](C)c2c(F)cccc2F)[nH]c1=O [Compound 60R, (R)-6-((1-(2,6-difluorophenyl)ethyl)amino)-3-isopropylpyrimidine-2,4(1H,3H)-dione] | – | IC50 [2]: > 39200 nM
CC(C)n1c(=O)cc(N[C@@H](C)c2ccc(OCc3ccccc3)cc2)[nH]c1=O [Compound 62, (S)-6-((1-(4-(benzyloxy)phenyl)ethyl)amino)-3-isopropylpyrimidine-2,4(1H,3H)-dione] | – | IC50 [3]: < 1000 nM
CC(C)n1c(=O)cc(N[C@@H](C)c2ccc(O)cc2)[nH]c1=O [Compound 63, (S)-6-((1-(4-hydroxyphenyl)ethyl)amino)-3-isopropylpyrimidine-2,4(1H,3H)-dione] | – | IC50 [3]: < 1000 nM
